{"source": "patent US20090289071A1", "about": "“Flow Through Components with an Antimicrobial Lining” (THE BOC GROUP, INC., priority 2004, published 2009)", "key": {"[1]": {"experiment": "not given", "remark": "listed apart in the source"}, "[2]": {"conditions": "estimated; called medium value"}}, "data": [{"compound": "CCCCNC(=O)[N-]S(=O)(=O)c1ccc(C)cc1.[Ag+]", "note": "[AgTol, silver tolbutamide]", "values": [{"measurement": "solubility compared with silver sulfadiazine", "setting": "relative to silver sulfadiazine", "value": "considerably greater than that of silver sulfadiazine"}, {"measurement": "solubility", "setting": "variety of organic solvents, including solvents containing polymers", "value": "soluble in a variety of organic solvents"}, {"measurement": "light stability", "setting": "[1]; as a solid", "value": "light stable"}, {"measurement": "photostability", "setting": "[1]; present in a coating", "value": "not photostable"}, {"measurement": "dissociation constant (pK)", "setting": "[2]", "value": "> 3.3"}]}]}
